Source: the supplement of paper PMC11061612

Legend:
Assay in all cases: Bliss excess, mean over the matrix (fraction); higher = more synergy
[1] = tested on: A172 (Glioblastoma)
Summary of the method: (§1)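 After 24 hours at 37°C and 5% CO2 in 1536-well plates, cells in DMEM/F12 or RPMI plus 10% FBS received two-drug dose matrices for 72 hours. Viability came from CellTiter-Glo 2.0 luminescence and was scaled as inhibition, anchored at 0 by vehicle wells and at 1 by blank wells. Combination Emax is taken as the second-highest inhibition in the matrix, and Bliss excess as the observed combination effect less EA + EB − EA·EB, with EA and EB the single-agent effects.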

[2] = tested on: BICR78 (Oral Cavity Carcinoma)
Summary of the method: as §1

[3] = tested on: CAL-39 (Other Solid Carcinomas)
Summary of the method: as §1

[4] = tested on: DOK (Oral Cavity Carcinoma)
Summary of the method: as §1

[5] = tested on: EFM-192A (Breast Carcinoma)
Summary of the method: as §1

[6] = tested on: EKVX (Non-Small Cell Lung Carcinoma)
Summary of the method: as §1

[7] = tested on: ETK-1 (Biliary Tract Carcinoma)
Summary of the method: as §1

[8] = tested on: EW-22 (Ewing's Sarcoma)
Summary of the method: as §1

[9] = tested on: GDM-1 (Acute Myeloid Leukemia)
Summary of the method: as §1

[10] = tested on: HCT-116 (Colorectal Carcinoma)
Summary of the method: as §1

[11] = tested on: HOP-92 (Non-Small Cell Lung Carcinoma)
Summary of the method: as §1

[12] = tested on: JHH-6 (Hepatocellular Carcinoma)
Summary of the method: as §1

[13] = tested on: MEG-01 (Chronic Myelogenous Leukemia)
Summary of the method: as §1

[14] = tested on: PA-TU-8902 (Pancreatic Carcinoma)
Summary of the method: as §1

[15] = tested on: SK-MEL-1 (Melanoma)
Summary of the method: as §1

[16] = tested on: SK-UT-1 (Other Solid Carcinomas)
Summary of the method: as §1

[17] = tested on: SLVL (B-Cell Non-Hodgkin's Lymphoma)
Summary of the method: as §1

[18] = tested on: U-118-MG (Low Grade Glioma)
Summary of the method: as §1

[19] = tested on: WSU-DLCL2 (B-Cell Non-Hodgkin's Lymphoma)
Summary of the method: as §1

[20] = tested on: YT (Other Blood Carcinomas)
Summary of the method: as §1

SMILES | Bliss excess [1] | Bliss excess [2] | Bliss excess [3] | Bliss excess [4] | Bliss excess [5] | Bliss excess [6] | Bliss excess [7] | Bliss excess [8] | Bliss excess [9] | Bliss excess [10] | Bliss excess [11] | Bliss excess [12] | Bliss excess [13] | Bliss excess [14] | Bliss excess [15] | Bliss excess [16] | Bliss excess [17] | Bliss excess [18] | Bliss excess [19] | Bliss excess [20]
CN(C)CCCOc1ccc(-c2ccc3ncc4c(c3c2)n(C2CCOCC2)c(=O)n4C)cn1 [AZD0156] + C[C@@H]1COCCN1C2=NC(=NC(=C2)C3(CC3)[S@](=N)(=O)C)C4=C5C=CNC5=NC=C4 [AZD6738] (first compound max 1 µM, 7x7, partner max 10 µM) | 0.024 | 0.0119 | 0.0017 | -0.0395 | 0.0073 | -0.0388 | 0.0294 | 0.0143 | -0.0439 | -0.0047 | -0.0145 | -0.01 | 0.0001 | -0.0007 | -0.0216 | 0.0126 | -0.0134 | 0.0189 | 0.0712 | 0.0104
C=CCn1c(=O)c2cnc(Nc3ccc(N4CCN(C)CC4)cc3)nc2n1-c1cccc(C(C)(C)O)n1 [AZD1775] + O=C(c1cc(Cc2n[nH]c(=O)c3ccccc23)ccc1F)N1CCN(C(=O)C2CC2)CC1 [Olaparib] (first compound max 1 µM, partner max 10 µM) | -0.0226 | 0.0107 | -0.0223 | -0.0236 | -0.0307 | -0.0564 | -0.0292 | 0.0148 | 0.0017 | -0.0239 | -0.0181 | 0.02 | -0.0188 | -0.0327 | -0.0054 | -0.0148 | -0.0005 | -0.0766 | -0.0184 | -0.008
CCN(CCO)CCCOc1ccc2c(Nc3cc(CC(=O)Nc4cccc(F)c4)[nH]n3)ncnc2c1 [AZD2811] + C=CCn1c(=O)c2cnc(Nc3ccc(N4CCN(C)CC4)cc3)nc2n1-c1cccc(C(C)(C)O)n1 [AZD1775] (first compound max 1 µM, partner max 1 µM) | -0.0033 | 0.0338 | -0.0078 | -0.0017 | -0.0883 | -0.0599 | 0.0395 | 0.0527 | -0.0484 | 0.0524 | -0.0161 | 0.0092 | -0.0323 | -0.006 | -0.0323 | 0.108 | -0.04 | 0.0469 | 0.013 | 0.0367
CCN(CCO)CCCOc1ccc2c(Nc3cc(CC(=O)Nc4cccc(F)c4)[nH]n3)ncnc2c1 [AZD2811] + C[C@@H]1COCCN1C2=NC(=NC(=C2)C3(CC3)[S@](=N)(=O)C)C4=C5C=CNC5=NC=C4 [AZD6738] (first compound max 1 µM, 7x7, partner max 10 µM) | -0.0252 | -0.0215 | 0.0015 | -0.0502 | -0.0201 | -0.0558 | -0.0627 | -0.0503 | -0.0749 | -0.0825 | 0.0305 | -0.0342 | -0.0203 | -0.0532 | -0.0409 | 0.0317 | -0.0451 | -0.0337 | -0.0431 | -0.0204
CCN(CCO)CCCOc1ccc2c(Nc3cc(CC(=O)Nc4cccc(F)c4)[nH]n3)ncnc2c1 [AZD2811] + O=C(c1cc(Cc2n[nH]c(=O)c3ccccc23)ccc1F)N1CCN(C(=O)C2CC2)CC1 [Olaparib] (first compound max 1 µM, 7x7, partner max 10 µM) | 0.044 | -0.0114 | 0.0017 | -0.0086 | 0.0138 | -0.0303 | 0.0049 | -0.0612 | -0.0709 | -0.0109 | -0.0048 | -0.0127 | -0.0628 | 0.0081 | -0.0325 | 0.0453 | -0.001 | 0.0186 | 0.0463 | 0.0623
CN(CCO)CC[C@H](CSc1ccccc1)Nc1ccc(S(=O)(=O)NC(=O)c2ccc(N3CCC([C@@H](O)c4ccccc4-c4ccc(Cl)cc4)CC3)cc2)cc1S(=O)(=O)C(F)(F)F [AZD4320] + C1CN(CCC1(C(=O)N[C@@H](CCO)C2=CC=C(C=C2)Cl)N)C3=NC=NC4=C3C=CN4 [Capivasertib] (first compound max 1 µM, 7x7, partner max 3 µM) | -0.0588 | -0.0097 | -0.0296 | -0.0554 | -0.0269 | -0.0309 | -0.0305 | -0.0341 | -0.0206 | -0.0366 | -0.038 | -0.0437 | -0.0223 | -0.0448 | -0.0281 | -0.0006 | 0.0563 | -0.0546 | 0.0691 | 0.0135
CN(CCO)CC[C@H](CSc1ccccc1)Nc1ccc(S(=O)(=O)NC(=O)c2ccc(N3CCC([C@@H](O)c4ccccc4-c4ccc(Cl)cc4)CC3)cc2)cc1S(=O)(=O)C(F)(F)F [AZD4320] + C=CCn1c(=O)c2cnc(Nc3ccc(N4CCN(C)CC4)cc3)nc2n1-c1cccc(C(C)(C)O)n1 [AZD1775] (first compound max 1 µM, partner max 1 µM) | -0.0101 | 0.0149 | -0.0529 | -0.0273 | 0.0171 | -0.0382 | -0.0295 | 0.0897 | 0.0814 | -0.0294 | 0.101 | -0.0095 | 0.0516 | -0.0357 | -0.0091 | 0.0431 | 0.0422 | 0.0108 | -0.009 | -0.0156
CN(CCO)CC[C@H](CSc1ccccc1)Nc1ccc(S(=O)(=O)NC(=O)c2ccc(N3CCC([C@@H](O)c4ccccc4-c4ccc(Cl)cc4)CC3)cc2)cc1S(=O)(=O)C(F)(F)F [AZD4320] + CN(C)CCCOc1ccc(-c2ccc3ncc4c(c3c2)n(C2CCOCC2)c(=O)n4C)cn1 [AZD0156] (first compound max 1 µM, 7x7, partner max 1 µM) | -0.0152 | -0.0268 | -0.0247 | -0.0332 | -0.0468 | -0.0392 | -0.0509 | 0.0228 | -0.0248 | -0.0518 | -0.0014 | -0.0367 | -0.0262 | -0.0511 | -0.0254 | -0.0284 | -0.0117 | -0.0537 | 0.0117 | -0.0281
CN(CCO)CC[C@H](CSc1ccccc1)Nc1ccc(S(=O)(=O)NC(=O)c2ccc(N3CCC([C@@H](O)c4ccccc4-c4ccc(Cl)cc4)CC3)cc2)cc1S(=O)(=O)C(F)(F)F [AZD4320] + C[C@@H]1COCCN1C2=NC(=NC(=C2)C3(CC3)[S@](=N)(=O)C)C4=C5C=CNC5=NC=C4 [AZD6738] (first compound max 1 µM, 7x7, partner max 10 µM) | -0.0748 | 0.0039 | -0.0685 | -0.0269 | -0.0226 | -0.0458 | -0.0463 | 0.0762 | -0.0144 | -0.0143 | 0.0076 | -0.023 | -0.0267 | -0.0378 | -0.0757 | 0.0253 | 0.0156 | -0.0285 | 0.0329 | -0.0251
CN(CCO)CC[C@H](CSc1ccccc1)Nc1ccc(S(=O)(=O)NC(=O)c2ccc(N3CCC([C@@H](O)c4ccccc4-c4ccc(Cl)cc4)CC3)cc2)cc1S(=O)(=O)C(F)(F)F [AZD4320] + C[C@@H](Nc1cc(F)cc(F)c1)c1cc(C(=O)N(C)C)cc2c(=O)cc(N3CCOCC3)oc12 [AZD8186] (first compound max 1 µM, 7x7, partner max 3 µM) | 0.0387 | -0.0594 | 0.0175 | -0.0195 | 0.0057 | -0.0127 | -0.046 | -0.0261 | 0.0375 | 0.0266 | 0.0329 | -0.0164 | 0.0022 | -0.0139 | -0.0523 | 0.002 | 0.0476 | 0.0018 | 0.0852 | 0.0327
CN(CCO)CC[C@H](CSc1ccccc1)Nc1ccc(S(=O)(=O)NC(=O)c2ccc(N3CCC([C@@H](O)c4ccccc4-c4ccc(Cl)cc4)CC3)cc2)cc1S(=O)(=O)C(F)(F)F [AZD4320] + Cc1cc2ncnn2cc1Nc1ncc2c(n1)n(C1CCOCC1)c(=O)n2C [AZD7648] (first compound max 1 µM, 7x7, partner max 10 µM) | -0.0828 | -0.0167 | -0.03 | -0.0178 | -0.0265 | -0.0398 | -0.0639 | -0.0165 | -0.0041 | -0.0197 | -0.0034 | -0.024 | 0.0304 | -0.0429 | -0.025 | -0.0195 | 0.0119 | -0.0154 | 0.0591 | 0.0291
Cc1c2c(nn1C)CSCc1cc(n(C)n1)CSc1cc(c3ccccc3c1)OCCCc1c(C(=O)O)n(C)c3c-2c(Cl)ccc13 [AZD5991] + C1CN(CCC1(C(=O)N[C@@H](CCO)C2=CC=C(C=C2)Cl)N)C3=NC=NC4=C3C=CN4 [Capivasertib] (first compound max 1 µM, 7x7, partner max 3 µM) | -0.0001 | -0.0198 | -0.0203 | -0.0113 | 0.0579 | -0.015 | -0.0525 | 0.0007 | 0.0461 | -0.0275 | -0.0294 | -0.0163 | -0.0122 | -0.041 | -0.0373 | 0.0297 | 0.004 | -0.0205 | 0.013 | -0.0466
Cc1c2c(nn1C)CSCc1cc(n(C)n1)CSc1cc(c3ccccc3c1)OCCCc1c(C(=O)O)n(C)c3c-2c(Cl)ccc13 [AZD5991] + C=CCn1c(=O)c2cnc(Nc3ccc(N4CCN(C)CC4)cc3)nc2n1-c1cccc(C(C)(C)O)n1 [AZD1775] (first compound max 1 µM, partner max 1 µM) | 0.0736 | -0.0034 | 0.0957 | -0.0235 | -0.0297 | 0.0335 | 0.0386 | 0.0756 | 0.0207 | 0.0226 | -0.012 | -0.0647 | -0.0401 | -0.0326 | -0.0137 | -0.0534 | -0.0346 | -0.0014 | -0.0245 | -0.0725
